Measured values: patent publication US5064826A, “Novel triazolo-pyrimidine derivatives” (priority 1989, dated 1991)

Legend:
[1] = Antidepressant activity shown against tetrabenazine ptosis (T.P.) after p.o. administration; type: in vivo; settings: for ED50: po, read-out: T.P. ED50; for TI (therapeutic index), T.P.: tetrabenazine ptosis, p.o. administration, TI = therapeutic index = LD50 (so in the source)
Excerpt: (§1) Antidepressant activity of some of compounds of formulae Ia
(§2) and Ib shown against tetrabenazine ptosis (T.P.) and
(§3) analgesic activity in Writhing test (W.t.) after p.o. administration
TI = therapeutica1 index = LD50

[2] = Analgesic activity in Writhing test (W.t.) after p.o. administration; type: in vivo; settings: for ED50: po, read-out: W.t. ED50
Excerpt: as §1, §2, §3
TI = therapeutica1 index = LD50

Row | SMILES | ED50 [1] | TI (therapeutic index), T.P. [1] | TI (therapeutic index), W.t. ([2]; Writhing test, p.o. administration, TI = therapeutic index = LD50 (so in the source)) | ED50 [2]
1 | CN(C)c1nc2[nH]c3c(c(=O)n2n1)SCCC3 [Example 19, 2-Dimethylamino-5,7,8,9-tetrahydrothiopyrano[3,2-d]-1,2,4-triazolo[1,5-a]pyrimidine-5(10H)-one] | 2.7 mg/kg | 748 |  | 
2 | O=c1c2c([nH]c3nc(N4CCOCC4)nn13)CCCS2 [Example 21, 2-Morpholino-5,7,8,9-tetrahydrothiopyrano[3,2-d]-1,2,4-triazolo[1,5-a]pyrimidine-5(10H)-one] | 5.2 mg/kg | 385 |  | 
3 | O=c1c2c([nH]c3nc(NC4CCCCC4)nn13)CCCS2 [Example 25, 2-Cyclohexylamino-5,7,8,9-tetrahydrothiopyrano[3,2-d]-1,2,4-triazolo[1,5-a]pyrimidine-5(10H)-one] | 22.5 mg/kg | 87 |  | 
4 | CC(C)(C)Nc1nc2[nH]c3c(c(=O)n2n1)SCCC3 [Example 26, 2-t-Butylamino-5,7,8,9-tetrahydrothiopyrano[3,2-d]-1,2,4-triazolo[1,5-a]pyrimidine-5(10H)-one] |  |  | 5.6 | 355 mg/kg
5 | CN(C)CCC=C1c2ccccc2CCc2ccccc21 [amitriptyline, 5(3-dimethylaminopropylidene)dibenz/a,d/1,4-cycloheptadiene, reference compound] | 12 mg/kg | 19 |  | 
6 | CC(=O)Nc1ccc(O)cc1 [paracetamol, p(acetylamino)-phenol, reference compound] |  |  |  | 421 mg/kg
